# Earlier results, collected in patent US7498354B2, “Pyrrolo[2,3-D]imidazoles for the treatment of hyperproliferative disorders” (OSI Pharmaceuticals, Inc., priority 2006, dated 2009).
# Structures can show the parent of a compound that is named as a salt.
# What was measured:
# [1] = test system: MO7e human leukemia cells; details: GM-CSF stimulation
# [2] = test system: MO7e human leukemia cells; details: Kit ligand stimulation
structure (smiles),measurement,setting,value
"Cc1ccc(NC(=O)c2ccc(CN3CCN(C)CC3)cc2)cc1Nc1nccc(-c2cccnc2)n1 [Gleevec, imatinib mesylate]",GM-CSF stimulated growth of MO7e human leukemia cells,[1],not affected
same,Kit ligand-stimulated growth of MO7e human leukemia cells,[2],inhibited
same,apoptosis in Kit ligand-stimulated MO7e cells,[2],induces apoptosis
